# According to US10421778B2, “Isoform-selective lysine deacetylase inhibitors” (WASHINGTON UNIVERSITY, priority 2015, dated 2019):
# Marks after values point to notes of the source that are not given here. Positions of bridges follow the written chain, without caps; N, C: chain ends. Non-standard residues stand in square brackets, D forms with d. Residues, ends and D or L forms follow the SMILES beside them. *: point of attachment. GABA = NCCCC(=O)O; NHOH = ON*
# Columns and labels:
# Assay in all cases: KDAC inhibition assay, Caliper EZ Reader II
# Type in all cases: biochemical
# recombinant human KDAC1 = target: T1, recombinant human KDAC1 (Homo sapiens, UniProt Q13547); conditions: for KDAC Inhibition Activity KDAC1 (% inhibition): % inhibition at 30 μM
# T1 construct: purchased BPS Bioscience
# T1 sequence (Q13547 whole entry): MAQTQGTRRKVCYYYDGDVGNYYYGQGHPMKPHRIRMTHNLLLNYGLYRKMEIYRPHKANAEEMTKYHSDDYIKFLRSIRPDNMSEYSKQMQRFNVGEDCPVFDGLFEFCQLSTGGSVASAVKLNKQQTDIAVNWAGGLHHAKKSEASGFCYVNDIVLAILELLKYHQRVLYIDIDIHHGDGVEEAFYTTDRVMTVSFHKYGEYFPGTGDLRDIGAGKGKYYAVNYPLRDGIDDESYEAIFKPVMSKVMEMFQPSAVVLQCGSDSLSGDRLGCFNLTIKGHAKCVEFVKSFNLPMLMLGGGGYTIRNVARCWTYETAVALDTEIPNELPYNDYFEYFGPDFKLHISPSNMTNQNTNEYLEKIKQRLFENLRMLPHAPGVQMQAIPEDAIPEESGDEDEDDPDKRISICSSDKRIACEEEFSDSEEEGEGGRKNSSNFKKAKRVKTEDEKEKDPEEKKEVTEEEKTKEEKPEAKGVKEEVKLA
# recombinant human KDAC3 = target: T2, recombinant human KDAC3 (Homo sapiens, UniProt O15379); conditions: for KDAC Inhibition Activity KDAC3 (% inhibition): % inhibition at 30 μM
# T2 construct: purchased BPS Bioscience
# T2 sequence (O15379 whole entry): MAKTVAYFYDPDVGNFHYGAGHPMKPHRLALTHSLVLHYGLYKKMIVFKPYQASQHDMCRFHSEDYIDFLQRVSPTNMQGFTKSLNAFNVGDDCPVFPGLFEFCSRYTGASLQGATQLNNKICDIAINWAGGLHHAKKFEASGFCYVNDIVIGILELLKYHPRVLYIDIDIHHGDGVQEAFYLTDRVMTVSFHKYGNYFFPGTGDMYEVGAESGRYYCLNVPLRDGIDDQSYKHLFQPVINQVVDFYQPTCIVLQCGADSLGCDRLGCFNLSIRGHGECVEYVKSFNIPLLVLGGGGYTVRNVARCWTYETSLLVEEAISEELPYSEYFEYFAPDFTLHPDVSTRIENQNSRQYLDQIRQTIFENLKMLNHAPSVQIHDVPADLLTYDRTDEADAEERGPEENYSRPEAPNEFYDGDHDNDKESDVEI
# T2 sequence (Q9Y618 395-489 partner limits assumed): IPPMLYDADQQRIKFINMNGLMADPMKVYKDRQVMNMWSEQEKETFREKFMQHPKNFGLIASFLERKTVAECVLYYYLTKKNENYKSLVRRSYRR
# recombinant human KDAC6 = target: T3, recombinant human KDAC6 (Homo sapiens, UniProt Q9UBN7); conditions: for KDAC Inhibition Activity KDAC6 (% inhibition): % inhibition at 30 μM
# T3 construct: purchased BPS Bioscience
# T3 sequence (Q9UBN7 1-1215): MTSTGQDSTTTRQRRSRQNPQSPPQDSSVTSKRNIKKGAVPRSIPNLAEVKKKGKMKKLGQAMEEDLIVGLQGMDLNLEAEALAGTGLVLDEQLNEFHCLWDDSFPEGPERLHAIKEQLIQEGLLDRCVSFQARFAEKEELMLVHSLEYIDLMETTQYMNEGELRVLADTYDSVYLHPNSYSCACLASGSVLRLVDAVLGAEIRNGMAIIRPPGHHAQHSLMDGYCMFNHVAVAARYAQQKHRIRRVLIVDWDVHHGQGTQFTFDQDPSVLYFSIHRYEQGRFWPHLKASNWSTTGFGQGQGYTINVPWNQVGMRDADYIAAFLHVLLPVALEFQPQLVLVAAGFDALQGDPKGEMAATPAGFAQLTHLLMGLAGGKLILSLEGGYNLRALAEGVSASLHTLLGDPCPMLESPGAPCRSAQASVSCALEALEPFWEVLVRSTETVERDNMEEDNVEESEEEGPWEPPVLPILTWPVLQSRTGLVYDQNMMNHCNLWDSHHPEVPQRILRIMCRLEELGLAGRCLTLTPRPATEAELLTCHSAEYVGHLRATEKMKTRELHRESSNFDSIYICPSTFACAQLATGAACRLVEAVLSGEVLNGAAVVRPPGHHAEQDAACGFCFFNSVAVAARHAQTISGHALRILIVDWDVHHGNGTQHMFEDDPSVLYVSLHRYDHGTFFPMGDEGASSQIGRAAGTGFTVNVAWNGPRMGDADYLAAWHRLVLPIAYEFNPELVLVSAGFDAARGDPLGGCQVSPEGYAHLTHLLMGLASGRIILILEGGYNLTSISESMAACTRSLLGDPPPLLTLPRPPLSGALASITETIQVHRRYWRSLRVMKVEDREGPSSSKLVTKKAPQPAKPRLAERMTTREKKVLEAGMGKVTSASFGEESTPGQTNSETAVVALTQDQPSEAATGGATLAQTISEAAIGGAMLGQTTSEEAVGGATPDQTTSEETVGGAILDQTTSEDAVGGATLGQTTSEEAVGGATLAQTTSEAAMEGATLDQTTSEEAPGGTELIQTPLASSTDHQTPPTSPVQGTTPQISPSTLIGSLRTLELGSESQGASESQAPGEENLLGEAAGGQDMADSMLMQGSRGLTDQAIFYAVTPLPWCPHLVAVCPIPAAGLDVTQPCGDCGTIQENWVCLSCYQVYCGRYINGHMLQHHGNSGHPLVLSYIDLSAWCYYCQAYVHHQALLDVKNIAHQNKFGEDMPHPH
# recombinant human KDAC8 = target: T4, recombinant human KDAC8 (Homo sapiens, UniProt Q9BY41); conditions: for KDAC Inhibition Activity KDAC8 (% inhibition): % inhibition at 30 μM
# T4 construct: purchased BPS Bioscience
# T4 sequence (Q9BY41 1-377): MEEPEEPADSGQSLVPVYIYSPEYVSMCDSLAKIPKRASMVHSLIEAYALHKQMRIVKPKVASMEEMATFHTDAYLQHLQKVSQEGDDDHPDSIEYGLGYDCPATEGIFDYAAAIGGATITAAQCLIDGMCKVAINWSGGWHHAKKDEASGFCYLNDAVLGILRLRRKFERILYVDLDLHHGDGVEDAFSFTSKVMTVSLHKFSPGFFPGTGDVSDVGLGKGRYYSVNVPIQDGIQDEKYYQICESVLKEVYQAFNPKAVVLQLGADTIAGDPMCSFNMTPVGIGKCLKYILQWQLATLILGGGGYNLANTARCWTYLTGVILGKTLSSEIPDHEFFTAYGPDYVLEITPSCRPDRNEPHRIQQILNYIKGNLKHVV
Compound,inhibition at 30 µM (recombinant human KDAC1) [%],inhibition at 30 µM (recombinant human KDAC3) [%],inhibition at 30 µM (recombinant human KDAC6) [%],inhibition at 30 µM (recombinant human KDAC8) [%],KDAC Inhibition Activity KDAC1 (% inhibition) (recombinant human KDAC1),KDAC Inhibition Activity KDAC3 (% inhibition) (recombinant human KDAC3),KDAC Inhibition Activity KDAC6 (% inhibition) (recombinant human KDAC6),KDAC Inhibition Activity KDAC8 (% inhibition) (recombinant human KDAC8)
"CC(C)[C@@H]1NC(=O)[C@@H]2CCCN2C(=O)[C@H]2CCCN2C(=O)C[C@@H](C(=O)NCCCC(=O)NO)NC1=O [Compound 14a, Cyclo-Asp(^DPro-Pro-Val)-NHCH2CH2CH2CONHOH] ([dP]PVD[GABA]-{NHOH}; lactam N-4)",4.5,67,82,31,,,,
Cyclo-^DAsp(^DPro-Pro-Val)-NHCH2CH2CH2SH [Compound 6b],,,,,Not active,9%,Not active,8%
Cyclo-^DAsp(Pro-^DPro-Val)-NHCH2CH2CH2S(═O)CH3 [Compound 20b],,,,,1%,16%,1%,10%
Cyclo-^DAsp(^DPro-Pro-Val)-NHCH2CH2CH2COOMe [Compound 12b],,,,,5%,Not active,Not active,Not active
Cyclo-Asp(Pro-^DPro-Val)-NHCH2CH2SH [Compound 17a],,,,,Not active,2%,15%,5%
Cyclo-Asp(Pro-^DPro-Val)-NHCH2CH2S—SCH2CH2NH2 [Compound 26a],,,,,15%,5%,10%,10%
Cyclo-^DAsp(Pro-^DPro-Val)-NHCH2CH2CH2COOH [Compound 24b],,,,,Not active,9%,Not active,38%
Cyclo-^DAsp(Pro-^DPro-Val)-NHCH2CH2S—SCH2CH2NH2 [Compound 26b],,,,,Not active,Not active,13%,4%
Cyclo-^DAsp(^DPro-Pro-Val)-NHCH2CH2CH2CONHOH [Compound 14b],,,,,12.5%,27%,53%,21%
Cyclo-Asp(^DPro-Pro-Val)-NHCH2CH2CH2OH [Compound 10a],,,,,Not active,1%,1%,26%
Cyclo-^DAsp(^DPro-Pro-Val)-NHCH2CH2CH2NH2 [Compound 16b],,,,,4.5%,14%^a,2%^a,22%^a
Cyclo-Asp(Pro-^DPro-Val)-NHCH2CH2CH2COOH [Compound 24a],,,,,4%,8%,Not active,36%
Cyclo-Asp(^DPro-Pro-Val)-NHCH2CH2CH2SH [Compound 6a],,,,,8%,17-31% 24% average,15-36% 26% average,6%
Cyclo-^DAsp(Pro-^DPro-Val)-NHCH2CH2SH [Compound 17b],,,,,Not active,Not active,18%,Not active
Cyclo-^DAsp(Pro-^DPro-Val)-NHCH2CH2CH2SH [Compound 18b],,,,,9.5%,15%,48%,Not active
Cyclo-Asp(Pro-^DPro-Val)-NHCH2CH2CH2S(═O)CH3 [Compound 20a],,,,,Not active,Not active,Not active,19%
Cyclo-Asp(^DPro-Pro-Val)-NHCH2CH2CH2COOH [Compound 13a],,,,,Not active,Not active,Not active,3%
Cyclo-^DAsp(^DPro-Pro-Val)-NHCH2CH2CH2COOH [Compound 13b],,,,,2.5%,Not active,Not active,Not active
Cyclo-^DAsp(^DPro-Pro-Val)-NHCH2CH2SH [Compound 5b],,,,,Not active,Not active,23%,6%
Cyclo-^DAsp(Pro-^DPro-Val)-NHCH2CH2CH2CONHOH [Compound 25b],,,,,Not active,13%,6%,31%
Cyclo-Asp(^DPro-Pro-Val)-NHCH2CH2S—SCH2CH2NH2 [Compound 15a],,,,,Not active,Not active,Not active,1%
Cyclo-^DAsp(Pro-^DPro-Val)-NHCH2CH2CH2OH [Compound 22b],,,,,Not active,5%,Not active,12%
Cyclo-Asp(Pro-^DPro-Val)-NHCH2CH2CH2SH [Compound 18a],,,,,Not active,1%,19%,4%
